# Assays:
# Format in all cases: in vivo, Sprague-Dawley rats
# [1] = test system: thrombin/antithrombin III complex (TAT); assay: Thrombin/antithrombin III complex (TAT) in plasma after endotoxin
# Procedure: (§1) The body temperature was maintained at. 38° C. throughout the experiment by external heating.
# […]. […] Sham operated animals received saline instead of endotoxin.
# rats given endotoxin = assay: 125I-fibrinogen in the blood after endotoxin (experimental endotoxaemia); conditions: high dose heparin (group VIII); melagatran groups IV-VI; melagatran with dexamethasone groups XVII-XX
# Procedure: as §1
# (§2) Sham operated animals received saline instead of endotoxin.
# Adjustment for multiplicity was done using Scheffe. […] Corrections for multiple comparisons were made according to Bonferroni.
# [2] = Plasma concentration of melagatran (LC-MS)
# Text: as §2
smiles,measurement,setting,value
"C[C@@H]1C[C@H]2[C@@H]3CCC4=CC(=O)C=C[C@]4(C)[C@@]3(F)[C@@H](O)C[C@]2(C)[C@@]1(O)C(=O)CO [dexamethasone, Dexamethasone]",TAT (thrombin generation),[1]; dexamethasone groups (discussion),below 8 μg/l
"N=C(N)c1ccc(CNC(=O)[C@@H]2CCN2C(=O)[C@H](NCC(=O)O)C2CCCCC2)cc1 [melagatran, HOOC—CH2—(R)Cgl-Aze-Pab-H]",fibrinogen consumption,rats given endotoxin,completely prevented
same,mean plasma concentration of melagatran during the 5 h experiment,"[2]; group IV, Mela low 0.13 μmol/kg bolus + 0.32 μmol/kg/h iv",0.78 ± 0.08 µmol/L
same,plasma concentration of melagatran combined with heparin,"[2]; group IX, Hep low + Mela low",720 ± 90 nM
same,mean plasma concentration of melagatran during the 5 h experiment,"[2]; group V, Mela med 0.4 μmol/kg bolus + 1.0 μmol/kg/h iv",2.83+0.45 μmol/l
same,mean plasma concentration of melagatran during the 5 h experiment,"[2]; group VI, Mela high 1.3 μmol/kg bolus + 3.2 μmol/kg/h iv",6.88 ± 0.42 µmol/L
same,plasma concentration of melagatran combined with heparin,"[2]; group X, Hep low + Mela med",1970 ± 160 nM
same,plasma concentration of melagatran in combination with dexamethasone,"[2]; high dose group, first value (group XVIII, Dexa low 1 mg/kg + melagatran 0.4 μmol/kg + 1.0 μmol/kg/h)",1490 ± 130 nM
same,plasma concentration of melagatran in combination with dexamethasone,"[2]; high dose group, second value (group XX, Dexa high 10 mg/kg + melagatran 0.4 μmol/kg + 1.0 μmol/kg/h)",1280 ± 100 nM
same,plasma concentration of melagatran in combination with dexamethasone,"[2]; low dose group, first value (group XVII, Dexa low 1 mg/kg + melagatran 0.13 μmol/kg + 0.32 μmol/kg/h)",480 ± 10 nM
same,plasma concentration of melagatran in combination with dexamethasone,"[2]; low dose group, second value (group XIX, Dexa high 10 mg/kg + melagatran 0.13 μmol/kg + 0.32 μmol/kg/h)",460 ± 20 nM
NC[C@H]1CC[C@H](C(=O)O)CC1 [tranexamic acid],TAT,"[1]; measured in some animals, group III, groups XV-XX",55.5 ± 6.6 µg/L
